Converted amounts (≈) assume the structure as drawn. Read-outs that look alike come from different tables or passages of the source.
Experiments:
[1] = tested on: S. aureus ATCC 13709; test: MIC, S. aureus ATCC 13709; type: cell-based; conditions: for MIC: Staphylococcus aureus
[2] = tested on: E. coli ATCC 25922; test: MIC, E. coli ATCC 25922; type: cell-based; conditions: for MIC: Escherichia coli
[3] = ATCC13709, S. aureus, Alamar Blue read after overnight incubation at 35° C., read-out: MIC Sa
[4] = ATCC25922, E. coli, Alamar Blue read after overnight incubation at 35° C., read-out: MIC Ec
[5] = S. aureus, Alamar Blue read after overnight incubation at 35° C.
[6] = E. coli, Alamar Blue read after overnight incubation at 35° C.

MIC [1, 3] [µg/mL]	MIC [2, 4] [µg/mL]	MIC Sa [1, 5] [µg/mL]	MIC Ec [2, 6] [µg/mL]	Structure (SMILES)	other results
> 16	> 16			Cc1ncc(Oc2nc(N3C[C@H](N)C4(CC4)C3)c3c(n2)[nH]c2c(N(C)C(=O)[C@H](C)NC(=O)[C@H](C)N)cc(F)cc23)cn1 [Compound 4.425]	
		≤0.5	1 (≈ 2.29 µM)	CNc1cc(F)cc2c1[nH]c1nc(Oc3cnc(C)nc3)nc(N3CCC(C)(N)CC3)c12 [Compound 4.135]	
1 (≈ 2.19 µM)	4 (≈ 8.76 µM)			CNc1cccc2c1[nH]c1nc(Sc3cnc4cccnc4c3)nc(N3CCC(C)(N)C3)c12 (stereo not shown) [Compound 1.59]	
		16 (≈ 32.6 µM)	>16	CNc1cc(F)cc2c1[nH]c1nc(Oc3cnc(N4CCOCC4)nc3)nc(N3CC4C(N)C4C3)c12 (stereo not shown) [Compound 4.211]	
		≤0.5	≤0.5	CNc1cc(F)cc2c1[nH]c1nc(Oc3cnc(C)nc3)nc(N3CC4(CCC4N)C3)c12 (stereo not shown) [Compound 4.100]	
				CNc1cc(F)cc2c1[nH]c1nc(Oc3ccc([C@@H](C)O)nc3)nc(N3CC4[C@H](N)CC4(C)C3)c12 (stereo partly shown) [Compound 10.76]	MIC Sa ([1]; Table 18, Sa): ≤ 0.5 µg/mL; MIC Ec ([2]; Table 18, Ec): ≤ 0.5 µg/mL
> 16	> 16			Cc1ncc(Oc2nc(N3C[C@H](N)C4(CC4)C3)c3c(n2)[nH]c2c(N(C)C(=O)[C@H](C)N)cc(F)cc23)cn1 [Compound 4.423]	
4 (≈ 8.29 µM)	8 (≈ 16.6 µM)			CNc1cccc2c1[nH]c1nc(Sc3cncc(S(N)(=O)=O)c3)nc(N3CC4C(N)C4C3)c12 (stereo not shown) [Compound 1.41]	
16 (≈ 39.8 µM)	16 (≈ 39.8 µM)			CNc1cccc2c1[nH]c1nc(Oc3ccc[n+]([O-])c3)cc(N3CC4C(N)C4C3)c12 (stereo not shown) [Compound 3.30]	
		2 (≈ 4.21 µM)	8 (≈ 16.8 µM)	CNc1cc(F)cc2c1[nH]c1nc(Oc3cncc(-c4nnnn4C)c3)nc(N3CCC(N)C3)c12 (stereo not shown) [Compound 4.169]	
				CNc1cc(F)cc2c1[nH]c1nc(Oc3cnc(C)nc3)nc(N3CCC(N)(CCC#N)C3)c12 (stereo not shown) [Compound 10.75]	MIC Sa ([1]; Table 18, Sa): ≤ 0.5 µg/mL; MIC Ec ([2]; Table 18, Ec): 1 µg/mL (≈ 2.17 µM)
				CNc1cc(F)cc2c1[nH]c1nc(Oc3cnc4c(C)cnn4c3)nc(N3CC4C(N)C4C3)c12 (stereo not shown) [Compound 10.40]	MIC Sa ([1]; Table 18, Sa): ≤ 0.5 µg/mL; MIC Ec ([2]; Table 18, Ec): ≤ 0.5 µg/mL
		≤0.5	≤0.5	CNc1cc(F)cc2c1[nH]c1nc(Oc3cnc(C#N)c(C)c3)nc(N3CC4CC(N)C4C3)c12 (stereo not shown) [Compound 4.325]	
1 (≈ 1.85 µM)	16 (≈ 29.5 µM)			CNc1cccc2c1[nH]c1nc(Sc3cnc4ccc[n+]([O-])c4c3)nc(N3CC4C(C3)C4NC(=O)[C@H](C)N)c12 (stereo partly shown) [Compound 1.52]	
≤ 0.5	8 (≈ 14.8 µM)			CNc1cccc2c1[nH]c1nc(Sc3cnc4cccnc4c3)nc(N3CCN(C(=O)C4CCCO4)CC3)c12 (stereo not shown) [Compound 1.69]	
		≤0.5	1 (≈ 2.04 µM)	CNc1cc(F)cc2c1[nH]c1nc(Oc3ccc4ncsc4c3)nc(N3CC4CCC(N)C4C3)c12 (stereo not shown) [Compound 4.320]	
		≤0.5	1 (≈ 2.3 µM)	CNc1cc(F)cc2c1[nH]c1nc(Oc3cncc(OC)c3)nc(N3CC4C(N)C4C3)c12 (stereo not shown) [Compound 4.164]	
4 (≈ 8.29 µM)	16 (≈ 33.2 µM)			CNc1cccc2c1[nH]c1nc(Sc3cnc4cccnc4c3)nc(N3CC4CCCNC4C3)c12 (stereo not shown) [Compound 1.28]	
				CNc1cc(F)cc2c1[nH]c1nc(Cc3cnc(C)nc3)nc(N3CC4CC(N)C4C3)c12 (stereo not shown)	SA MIC ([1]; Table 11, compounds wherein L = CH2): ≤ 0.5 µg/mL; EC8 MIC ([2]; Table 11, L = CH2, EC8 not defined): 1 µg/mL

MIC [1, 3] [µg/mL]	MIC [2, 4] [µg/mL]	MIC Sa [1, 5] [µg/mL]	MIC Ec [2, 6] [µg/mL]	Structure (SMILES)	other results
		2 (≈ 5.14 µM)	64 (≈ 164 µM)	COc1cccc2c1[nH]c1nc(Oc3cncnc3)nc(N3CC4C(N)C4C3)c12 (stereo not shown) [Compound 2.13]	
2 (≈ 5.18 µM)	> 64			CNc1cccc2c1[nH]c1nc(Oc3cncnc3)nc(Oc3cncnc3)c12 [Compound 8.1]	
		≤0.5	≤0.5	CNc1cc(F)cc2c1[nH]c1nc(Oc3cncnc3)nc(N3CC(N)C4(CC4)C3)c12 (stereo not shown) [Compound 4.002]	
				CNc1cc(F)cc2c1[nH]c1nc(Oc3cnc4cc[s+]([O-])c4c3)nc(N3C[C@H]4C[C@@H]3C[C@H]4N)c12 (stereo partly shown) [Compound 10.109]	MIC Sa ([1]; Table 18, Sa): ≤ 0.5 µg/mL; MIC Ec ([2]; Table 18, Ec): ≤ 0.5 µg/mL
		4 (≈ 10.1 µM)	>16	CNc1cc(F)cc2c1[nH]c1nc(Oc3cnc(C)nc3)nc(NCCCN)c12 [Compound 4.108]	
16 (≈ 39.9 µM)	64 (≈ 159 µM)			CNc1cccc2c1[nH]c1nc(Oc3cncnc3)cc(N3CC4(CCNC4)C3)c12 [Compound 3.67]	
		≤0.5	2 (≈ 4.9 µM)	CNc1cc(F)cc2c1[nH]c1nc(Oc3cnc(C)nc3)nc(N3CC(CN)C3)c12 [Compound 4.143]	
		≤0.5	≤0.5	CNc1cc(F)cc2c1[nH]c1nc(Oc3cncnc3)nc(N3CCC4(CC4N)C3)c12 (stereo not shown) [Compound 4.003]	
				CNc1cc(F)cc2c1[nH]c1nc(Oc3cnc(C)nc3)nc(N3C[C@H]4C[C@@H]3C[C@H]4N(CCO)CCO)c12 [Compound 10.115]	MIC Sa ([1]; Table 18, Sa): ≤ 0.5 µg/mL; MIC Ec ([2]; Table 18, Ec): 1 µg/mL (≈ 1.91 µM)
		≤0.5	≤0.5	CNc1cc(F)cc2c1[nH]c1nc(Oc3cnc(C4CCC4)nc3)nc(N3CC4C(N)C4C3)c12 (stereo not shown) [Compound 4.286]	
		≤0.5	4 (≈ 8.1 µM)	CNc1cc(F)cc2c1[nH]c1nc(Oc3cnc(N4CCOCC4)nc3)nc(N3CCC(CN)C3)c12 (stereo not shown) [Compound 4.215]	
		≤0.5	≤0.5	CNc1cc(F)cc2c1[nH]c1nc(Oc3cncc(Cl)c3)nc(N3CC(N)C3)c12 [Compound 4.277]	
		≤0.5	≤0.5	CNc1cc(F)cc2c1[nH]c1nc(Oc3cncnc3)nc(N3CC4C(N)C4C3)c12 (stereo not shown) [Compound 4.001]	
				CNc1cc(F)c(C#N)c2c1[nH]c1nc(Oc3cnc(C)nc3)nc(N3C[C@H]4CCN[C@H]4C3)c12 [Compound 10.70]	MIC Sa ([1]; Table 18, Sa): ≤ 0.5 µg/mL; MIC Ec ([2]; Table 18, Ec): ≤ 0.5 µg/mL
2 (≈ 4.03 µM)	4 (≈ 8.05 µM)			CNc1cccc2c1[nH]c1nc(Sc3cncc(S(=O)(=O)NC)c3)nc(N3CC4C(N)C4C3)c12 (stereo not shown) [Compound 1.36]	
≤ 0.5	≤ 0.5			CNc1cc(F)cc2c1[nH]c1nc(Sc3cnc4ccc[n+]([O-])c4c3)nc(N3CC4C(N)C4C3)c12 (stereo not shown) [Compound 1.50]	
		4 (≈ 10.2 µM)	>16	Cc1cc(F)cc2c1[nH]c1nc(Oc3cncnc3)nc(N3CC4C(N)C4C3)c12 (stereo not shown) [Compound 2.7]	
2 (≈ 4.66 µM)	8 (≈ 18.6 µM)			CNc1cccc2c1[nH]c1nc(Oc3cnc(C)nc3)cc(N3C[C@@H](NC)C4(CC4)C3)c12 [Compound 3.48]	
				CNc1cc(F)cc2c1[nH]c1nc(Oc3cnc(C)nc3)nc(N3CCCC3=O)c12	MIC ([1]; ATCC13709, Table 16, new R4 substituents, read-out: SA MIC): 1 µg/mL (≈ 2.45 µM); MIC ([2]; ATCC25922, Table 16, new R4 substituents, EC8 not defined, read-out: EC8 MIC): > 16 µg/mL

MIC [1, 3] [µg/mL]	MIC [2, 4] [µg/mL]	MIC Sa [1, 5] [µg/mL]	MIC Ec [2, 6] [µg/mL]	Structure (SMILES)	other results
				CNc1cc(F)cc2c1[nH]c1nc(Oc3cnc4ccnn4c3)nc(N3CC[C@]4(C[C@@H]4N)C3)c12 [Compound 10.12]	MIC Sa ([1]; Table 18, Sa): ≤ 0.5 µg/mL; MIC Ec ([2]; Table 18, Ec): ≤ 0.5 µg/mL
1 (≈ 2.19 µM)	4 (≈ 8.76 µM)			CNc1cccc2c1[nH]c1nc(Sc3cnc4cccnc4c3)nc(N3CCC[C@@H](N)C3)c12 [Compound 1.37]	
		≤0.5	≤0.5	CNc1cc(F)cc2c1[nH]c1nc(Oc3cnc(SC)nc3)nc(N3CCC4(C[C@H]4N)C3)c12 (stereo partly shown) [Compound 4.203]	
				CNc1cc(F)cc2c1[nH]c1nc(Oc3cnc4c(C)cnn4c3)nc(N3C[C@H]4CCN[C@H]4C3)c12 [Compound 10.24]	MIC Sa ([1]; Table 18, Sa): ≤ 0.5 µg/mL; MIC Ec ([2]; Table 18, Ec): ≤ 0.5 µg/mL
≤ 0.5	> 64			COc1cccc2c1[nH]c1nc(Sc3cnc4cccnc4c3)nc(N3CC4C(N)C4C3)c12 (stereo not shown) [Compound 1.75]	
1 (≈ 1.92 µM)	16 (≈ 30.7 µM)			CNc1cc(F)cc2c1[nH]c1nc(Oc3cnc(C)nc3)nc(N3CC(N)C(C(=O)N4CCOCC4)C3)c12 (stereo not shown) [Compound 4.438]	
		≤0.5	1 (≈ 2.11 µM)	CNc1cc(F)cc2c1[nH]c1nc(Oc3ccc4c(c3)C(=O)NCC4)nc(N3CC4C(N)C4C3)c12 (stereo not shown) [Compound 4.301]	
8 (≈ 19.8 µM)	64 (≈ 158 µM)			CNc1ncnc2c1[nH]c1nc(Oc3cnc(C)nc3)nc(N3CC4C(N)C4C3)c12 (stereo not shown) [Compound 7.05]	
				CNc1cc(F)c(Cl)c2c1[nH]c1nc(Oc3cnc(C)nc3)nc(N3C[C@H]4CCN[C@H]4C3)c12 [Compound 10.64]	MIC Sa ([1]; Table 18, Sa): ≤ 0.5 µg/mL; MIC Ec ([2]; Table 18, Ec): ≤ 0.5 µg/mL
> 64	> 64			CNc1ncnc2c1[nH]c1nc(-c3cncnc3)nc(N3CC4C(N)C4C3)c12 (stereo not shown) [Compound 7.11]	
		≤0.5	2 (≈ 4.6 µM)	CNc1cc(F)cc2c1[nH]c1nc(Oc3cnc(C)nc3)nc(N3CC4(CC(N)C4)C3)c12 [Compound 4.153]	
		≤0.5	2 (≈ 4.46 µM)	CNc1cc(F)cc2c1[nH]c1nc(Oc3cncc(C(N)=O)c3)nc(N3CC4C(N)C4C3)c12 (stereo not shown) [Compound 4.237]	
		≤0.5	≤0.5	CNc1cc(F)cc2c1[nH]c1nc(Oc3ccc4sc(C)nc4c3)nc(N3CC4CCC(N)C4C3)c12 (stereo not shown) [Compound 4.322]	
≤ 0.5	8 (≈ 19.1 µM)			CNc1cccc2c1[nH]c1nc(Oc3cncnc3)cc(N3C/C(=N\OC)[C@@H](N)C3)c12 [Compound 3.62]	
				CNc1cc(F)cc2c1[nH]c1nc(Oc3ccc4ccnn4c3)nc(N3CC4(CCC4N)C3)c12 (stereo not shown) [Compound 10.57]	MIC Sa ([1]; Table 18, Sa): ≤ 0.5 µg/mL; MIC Ec ([2]; Table 18, Ec): ≤ 0.5 µg/mL
		≤0.13	≤0.5	CNc1cccc2c1[nH]c1nc(Sc3cnc4ccc[n+]([O-])c4c3)nc(N3CC4C(N)C4C3)c12 (stereo not shown) [Compound 1.66]	
				CNc1cc(F)c2c3c1[nH]c1nc(Oc4cncnc4)nc(c13)-c1ccccc1NC2	SA MIC ([1]; Table 12, Z is C and connected to R4): ≤ 0.5 µg/mL; EC8 MIC ([2]; Table 12, Z is C and connected to R4, EC8 not defined): > 16 µg/mL
		≤0.5	8 (≈ 18.4 µM)	CNc1cc(F)cc2c1[nH]c1nc(Oc3cnc(N)nc3)nc(N3CC4CC4(CN)C3)c12 (stereo not shown) [Compound 4.185]	
